From patent publication US5683987A, “Therapeutic oligonucleotides targeting the human MDR1 and MRP genes” (The Board of Regents of the University of Nebraska, priority 1995, dated 1997)
Several values for one entry are separate records, joined by “and”; a condition that tells them apart may be missing. Equal values may be shown once. Read-outs that look alike come from different tables or passages of the source.

Legend:
[1] = test system: 8226/Dox4 human myeloma cells; assay: Vincristine IC50 summary after MDR-oligo treatment; format: cell-based; conditions: Homo sapiens, read-out: Vincristine IC50
Experimental: (§1) In vitro testing of MDR-Oligonucleotides was done on the multidrug-resistant (MDR+) RPMI-8226/Dox4 human multiple myeloma cell line (gift of Dr. William Dalton, Univ. Arizona Cancer Ctr., Tucson). Cells were incubated in vitro for 4 days at 37° C. with MDR-oligos at 0.2 μM final concentration; pulsed 18 hr with serial 5-fold dilutions of chemotherapeutic drug (vincristine) from 1×10^-4 M to 2×10^-10 M. Cells were then washed, and incubated for an additional 4 days. Tritiated thymidine (^3 H-TdR) was added for last 18 hr to measure status of cellular proliferation. Controls included MDR^+ 8226 cells similarly treated with vincristine but pretreated either with (a) control ODNs, or (b) culture medium only.

8226/Dox4 cells = assay: Parsimonious regression model estimates of count and Vincristine IC50; format: cell-based, human; conditions: Homo sapiens, read-out: Estimated IC50
Experimental: as §1
The following mathematical/statistical model was used to analyze the effects of oligos and various drug treatments on targeted tumor cells in these studies. The model is based on experiments which generally involve treatment of tumor cells with one of several ODNs or media only, and with several dose levels of an anti-cancer agent (such as, for example, vincristine (VCR)) or media only. Analysis goals were to model the relationship of cell kill to the dose of VCR (for example), and to compare the effects of the various ODNs.
This final model contained 10 regressor variables.
Various estimates of parameters from the parsimonious model are shown in TABLE 13, which contains the model estimate of the count for each ODN with media only; differences here (when compared to "media only" [no ODN]) reflect the cell kill associated with the ODN alone. TABLE 13 also contains an estimate of IC50 values, the dose of vincristine (VCR) which is estimated to produce an expected count which is exactly half that expected with "media only" [no VCR]. While formal statistical comparisons of the IC50 values of the various ODNs is not possible, an ordering of the ODNs by estimated IC50 values is possible.

[2] = test system: 8226/Dox human myeloma cells; assay: Sensitivity of 8226/Dox cells to Vincristine with increasing time after Vincristine exposure; format: cell-based; conditions: for IC50: Homo sapiens; for Relative Sensitization (fold increase) Day 5: Day 5 after Vincristine exposure; for Relative Sensitization (fold increase) Day 7: Day 7 after Vincristine exposure; for Relative Sensitization (fold increase) Day 9: Day 9 after Vincristine exposure
Experimental: As shown in this example, several oligos which target the MDR1 gene are able to sensitize multidrug-resistant cell lines to the cytotoxic effects of the chemotherapeutic agent Vincristine. […] The cells were then washed and seeded into 96-well plates (quadruplicate replicates) for pulsing with tritiated thymidine 3 days later. Cells were harvested the next day (=4th day after drug treatment). Tritiated thymidine uptake was analyzed by liquid scintillation.
As shown in this example, it was determined that there was an increase in sensitivity of multidrug-resistant 8226/Dox human myeloma cells to Vincristine with increasing time of incubation following initial exposure to Vincristine. The experimental conditions were identical to those utilized in obtaining the data shown in Table 7, except that the present experiment had two additional time points.

[3] = test system: 8226/Dox human myeloma cells; assay: Sensitization of 8226/Dox cells to Vincristine by MDR-oligos in 5% oxygen; format: cell-based; conditions: for IC50: read-out: IC50 dose; for Relative sensitization (fold increase): to Vincristine, 10 μM oligo
Experimental: (§2) As shown in this example, several oligos which target the MDR1 gene are able to sensitize multidrug-resistant cell lines to the cytotoxic effects of the chemotherapeutic agent Vincristine. Tumor cells were treated in vitro with 10 μM of the indicated oligo for 4 days at 37° C., then counted, dispensed into individual tubes, and pulsed with Vincristine at various doses (serial 5-fold dilutions) for 3 hrs. The cells were then washed and seeded into 96-well plates (quadruplicate replicates) for pulsing with tritiated thymidine 3 days later. Cells were harvested the next day (=4th day after drug treatment). Tritiated thymidine uptake was analyzed by liquid scintillation.

[4] = test system: CEM/VLB10 human leukemia cells; assay: Sensitization of CEM/VLB10 cells to Vincristine by MDR-oligos in 5% oxygen; format: cell-based; conditions: for IC50: read-out: IC50 dose; for Relative sensitization (fold increase): to Vincristine, 10 μM oligo
Experimental: as §2

8226/Dox cells [5] = assay: Sensitization of 8226/Dox cells to Vincristine by an MRP-oligo and MDR-ODNs; format: cell-based, human; conditions: for IC50: read-out: IC50 dose
Experimental: as §2
In this example, experimental conditions were identical to those utilized in obtaining the data in Example 2.

8226/Dox cells [6] = assay: Sensitization of 8226/Dox cells to VCR by MDR-aptameric oligonucleotides; format: cell-based, human; conditions: for Fold Increase in Drug Sensitization: compared to media control
8226/Dox cells [7] = assay: Sensitization of 8226/Dox cells to doxorubicin by MDR-oligos (tritiated thymidine uptake); format: cell-based, human; conditions: for IC50: read-out: IC50 dose
Experimental: Multidrug resistant tumor cells were incubated with 15 μM of OL(6)mdr oligo, Cohen(1)mdr oligo or a negative-control (HIV-2) oligo for 4 days at 37° C. in a humidified incubation chamber. Varying doses (5-fold serial dilutions) of doxorubicin (from 1×10^-5 M to 1×10^-8 M) were then added to the culture wells after the cells had been subcultured into media without oligos; cells were then incubated in the same culture environment for an additional three days. Radiolabeled (tritiated) thymidine was added to all cultures for 24 hr before harvest. Each data point is the mean of 4 replicates.

[8] = test system: A427 human non-small-cell lung adenocarcinoma cell line; assay: Sensitization of A427 lung cancer cells to etoposide by MRP-oligos; format: cell-based
Experimental: The human non-small-cell lung adenocarcinoma cell line A427 was treated with oligos at various concentrations for 4 days in vitro. The cells then were pulsed with various concentrations of etoposide (range 1.6×10^-4 to 1×10^-6 M) for 3 hrs. Next, cells were trypsinized and seeded by volume into 96-well plates with 12 replicates per treatment condition. Three days later, tritiated thymidine was added and the cells harvested the next day.

[9] = test system: RPMI-8226/Dox4 human multiple myeloma cell line; assay: Relative activity of MRP-ODNs (summary); format: cell-based; parameters: key: --: no effect; +: weak positive effect; +++++: strong positive effect
[10] = Vincristine IC50 after 4 days with 10 μM oligo, 5% oxygen

Work on `CC[C@]1(O)C[C@H]2CN(CCc3c([nH]c4ccccc34)[C@@](C(=O)OC)(c3cc4c(cc3OC)N(C=O)[C@H]3[C@@](O)(C(=O)OC)[C@H](OC(C)=O)[C@]5(CC)C=CCN6CC[C@]43[C@@H]65)C2)C1` [Vincristine, reference compound] yielded an IC50 [1] of 12000 nM, an IC50 (8226/Dox4 cells) of 12800 nM and an IC50 ([2]; 120 h, read-out: IC50 Value on Day 5) of 440 nM. It also gave an IC50 ([2]; 168 h, read-out: IC50 Value on Day 7) of 7000 nM, an IC50 ([2]; 216 h, read-out: IC50 Value on Day 9) of 550000 nM and an IC50 ([3]; Homo sapiens) of 450 nM. The IC50 ([4]; Homo sapiens) was 10000 nM, the IC50 (8226/Dox cells [5]; Homo sapiens) was 1100 nM and the IC50 (8226/Dox cells [6]; Homo sapiens, VCR, Media (no oligo)) was 40000 nM.

`COc1cccc2c1C(=O)c1c(O)c3c(c(O)c1C2=O)C[C@@](O)(C(=O)CO)C[C@@H]3O[C@H]1C[C@H](N)[C@H](O)[C@H](C)O1` [doxorubicin, reference compound] showed an IC50 (8226/Dox cells [7]; Homo sapiens) of 650 nM.

For “MDR-APT-1: MDR-aptameric oligonucleotide, SEQ ID NO 88: CCCCTGGCGTTACCTCCTCGTTTCT (CCCCTGGCGTTACCTCCTCGTTTCT; chemistry not given here)”, the “Fold Increase in Drug Sensitization” value (8226/Dox cells [6]) was 40,000 fold.

With “MDR-APT-2: MDR-aptameric oligonucleotide, SEQ ID NO 89: TTCGCCTGATTTCCGCCTCCCGTCT (TTCGCCTGATTTCCGCCTCCCGTCT; chemistry not given here)” the “Fold Increase in Drug Sensitization” value (8226/Dox cells [6]) was 20,000 fold.

With “MDR-APT-3: MDR-aptameric oligonucleotide, SEQ ID NO 90: CGGTCCGTTA TGTTCCTG (CGGTCCGTTATGTTCCTG; chemistry not given here)” the “Fold Increase in Drug Sensitization” value (8226/Dox cells [6]) was 5,714 fold.

With “MDR-APT-4: MDR-aptameric oligonucleotide, SEQ ID NO 91: ACTCGCCTCCCACGTAGTGCTT (ACTCGCCTCCCACGTAGTGCTT; chemistry not given here)” the “Fold Increase in Drug Sensitization” value (8226/Dox cells [6]) was > 40,000 fold.

In the case of “OL(6)mdr: SEQ ID NO 1: CCCACGCCCC GGCGCTGTTC (CCCACGCCCCGGCGCTGTTC; chemistry not given here)”, the IC50 (8226/Dox cells [7]; doxorubicin IC50 after 4 days with 15 μM oligo, tritiated thymidine uptake) is reported as 180 nM, the “Relative sensitization (fold increase)” value (8226/Dox cells [7]; to doxorubicin, 15 μM oligo, vs medium only) is reported as 3.6 fold increase and the “Etoposide (VP-16) Relative Sensitization (fold increase)” value ([8]; oligo 1 μM) is reported as 0 fold increase. The “Etoposide (VP-16) Relative Sensitization (fold increase)” value ([8]; oligo 2.5 μM) was 0 fold increase, the “Etoposide (VP-16) Relative Sensitization (fold increase)” value ([8]; oligo 5.0 μM) was 1.2 fold increase and the “Etoposide (VP-16) Relative Sensitization (fold increase)” value ([8]; oligo 10 μM) was 1.6 fold increase. For the same molecule, the “Relative Sensitization (fold increase) Day 5” value ([2]; oligo 2 μM) was 1.6 fold increase, the “Relative Sensitization (fold increase) Day 7” value ([2]; oligo 2 μM) was 3.5 fold increase and the “Relative Sensitization (fold increase) Day 9” value ([2]; oligo 2 μM) was 61 fold increase. For the same molecule, the “Relative Sensitization (fold increase) Day 5” value ([2]; oligo 10 μM) was 1.8 fold increase, the “Relative Sensitization (fold increase) Day 7” value ([2]; oligo 10 μM) was 15.9 fold increase and the “Relative Sensitization (fold increase) Day 9” value ([2]; oligo 10 μM) was 550 fold increase. For the same molecule, the IC50 [3, 10] was 220 nM, the “Relative sensitization (fold increase)” value ([3]; 5% oxygen) was 2.5 fold increase and the IC50 [4, 10] was 120 nM. The “Relative sensitization (fold increase)” value ([4]; 5% oxygen) was 83 fold increase.

In the case of “OL(8)MRP: SEQ ID NO 64: GCGGGATGAT GATGGCGGCG (GCGGGATGATGATGGCGGCG; chemistry not given here)”, the “Etoposide (VP-16) Relative Sensitization (fold increase)” value ([8]; oligo 2.5 μM) is reported as 2.0 fold increase, the “Etoposide (VP-16) Relative Sensitization (fold increase)” value ([8]; oligo 5.0 μM) is reported as 3.6 fold increase and the “Etoposide (VP-16) Relative Sensitization (fold increase)” value ([8]; oligo 10 μM) is reported as 18 fold increase and 18.0 fold increase. The “Relative Activity” value [9] was “+++++”, the IC50 (8226/Dox cells [5]; Vincristine IC50 after oligo treatment, conditions as Example 2) was 55 nM and the “Relative sensitization (fold increase)” value (8226/Dox cells [5]; to Vincristine, vs medium only) was 20 fold increase.

“PA(1)mdr: SEQ ID NO 40: GCGGGAGGTGAGTCACTGTCTCC (GCGGGAGGTGAGTCACTGTCTCC; chemistry not given here)” was tested, and the “Relative Sensitization (fold increase) Day 5” value ([2]; oligo 2 μM) was 2.3 fold increase, the “Relative Sensitization (fold increase) Day 7” value ([2]; oligo 2 μM) was 27 fold increase and the “Relative Sensitization (fold increase) Day 9” value ([2]; oligo 2 μM) was 1309 fold increase. The “Relative Sensitization (fold increase) Day 5” value ([2]; oligo 10 μM) was 6.3 fold increase, the “Relative Sensitization (fold increase) Day 7” value ([2]; oligo 10 μM) was 28 fold increase and the “Relative Sensitization (fold increase) Day 9” value ([2]; oligo 10 μM) was 550 fold increase. For the same molecule, the IC50 [3, 10] was 28 nM, the “Relative sensitization (fold increase)” value ([3]; 5% oxygen) was 16 fold increase and the IC50 [4, 10] was 190 nM. For the same molecule, the “Relative sensitization (fold increase)” value ([4]; 5% oxygen) was 53 fold increase.
